Reference: patent publication US12479804B2, “Herbicidal compounds” (SYNGENTA CROP PROTECTION AG, priority 2019, dated 2025)

Each compound was assayed on Alopecurus myosuroides (ALOMY) (assay: Glasshouse herbicidal test, pre- and post-emergence, percentage damage to the plant). Conditions: post-emergence, 250 g/h, evaluated after 13 days.
Format: in vivo
Experimental: (§1) Seeds of a variety of test species are sown in standard soil in pots (Lolium perenne (LOLPE), Setaria faberi (SETFA), Alopecurus myosuroides (ALOMY), Echinochloa crus-galli (ECHCG), Avena fatua (AVEFA)). After cultivation for one day (pre-emergence) or after 8 days cultivation (post-emergence) under controlled conditions in a glasshouse (at 24/16° C., day/night; 14 hours light; 65% humidity), the plants are sprayed with an aqueous spray solution derived from the formulation of the technical active ingredient in acetone/water (50:50) solution containing 0.5% Tween 20 (polyoxyethelyene sorbitan monolaurate, CAS RN 9005-64-5). Compounds are applied at 250 g/h. The test plants are then grown in a glasshouse under controlled conditions in a glasshouse (at 24/16° C., day/night; 14 hours light; 65% humidity) and watered twice daily. After 13 days for pre and post-emergence, the test is evaluated for the percentage damage caused to the plant. The biological activities are shown in the following table on a five-point scale (5=80-100%; 4=60-79%; 3=40-59%; 2=20-39%; 1=0-19%).

SMILES	ALOMY POST percentage damage caused to the plant (five-point scale)
CC#Cc1cc(C)c(C2C(=O)CC3(CCN(S(=O)(=O)CC)C3)CC2=O)c(C)c1 (centres unmarked) [Compound A7]	5 (5=80-100%)
CC#Cc1cc(C)c(C2C(=O)CC3(CCCN(S(=O)(=O)CC)CC3)CC2=O)c(C)c1 (centres unmarked) [Compound A8]	5 (5=80-100%)
CC#Cc1cc(C)c(C2C(=O)CC3(CCCN(C(C)=O)CC3)CC2=O)c(C)c1 (centres unmarked) [Compound A9]	5 (5=80-100%)
CC#Cc1cc(C)c(C2C(=O)CC3(CCC(=O)NC3)CC2=O)c(C)c1 (centres unmarked) [Compound A10]	5 (5=80-100%)
CC#Cc1cc(C)c(C2C(=O)CC3(CCC(=O)N(C(C)=O)C3)CC2=O)c(C)c1 (centres unmarked) [Compound A11]	5 (5=80-100%)

Same assay, conditions: pre-emergence, 250 g/h, evaluated after 13 days

SMILES	ALOMY PRE percentage damage caused to the plant (five-point scale)
CC#Cc1cc(C)c(C2C(=O)CC3(CCN(S(=O)(=O)CC)C3)CC2=O)c(C)c1 (centres unmarked) [Compound A7]	5 (5=80-100%)
CC#Cc1cc(C)c(C2C(=O)CC3(CCCN(S(=O)(=O)CC)CC3)CC2=O)c(C)c1 (centres unmarked) [Compound A8]	5 (5=80-100%)
CC#Cc1cc(C)c(C2C(=O)CC3(CCCN(C(C)=O)CC3)CC2=O)c(C)c1 (centres unmarked) [Compound A9]	5 (5=80-100%)
CC#Cc1cc(C)c(C2C(=O)CC3(CCC(=O)NC3)CC2=O)c(C)c1 (centres unmarked) [Compound A10]	5 (5=80-100%)
CC#Cc1cc(C)c(C2C(=O)CC3(CCC(=O)N(C(C)=O)C3)CC2=O)c(C)c1 (centres unmarked) [Compound A11]	5 (5=80-100%)

These compounds were tested on Setaria faberi (SETFA) in the same assay as above. Conditions: post-emergence, 250 g/h, evaluated after 13 days.
Format: in vivo
Experimental: as §1

SMILES	SETFA POST percentage damage caused to the plant (five-point scale)
CC#Cc1cc(C)c(C2C(=O)CC3(CCN(S(=O)(=O)CC)C3)CC2=O)c(C)c1 (centres unmarked) [Compound A7]	5 (5=80-100%)
CC#Cc1cc(C)c(C2C(=O)CC3(CCCN(S(=O)(=O)CC)CC3)CC2=O)c(C)c1 (centres unmarked) [Compound A8]	5 (5=80-100%)
CC#Cc1cc(C)c(C2C(=O)CC3(CCCN(C(C)=O)CC3)CC2=O)c(C)c1 (centres unmarked) [Compound A9]	5 (5=80-100%)
CC#Cc1cc(C)c(C2C(=O)CC3(CCC(=O)NC3)CC2=O)c(C)c1 (centres unmarked) [Compound A10]	5 (5=80-100%)
CC#Cc1cc(C)c(C2C(=O)CC3(CCC(=O)N(C(C)=O)C3)CC2=O)c(C)c1 (centres unmarked) [Compound A11]	5 (5=80-100%)

Same assay, conditions: pre-emergence, 250 g/h, evaluated after 13 days

SMILES	SETFA PRE percentage damage caused to the plant (five-point scale)
CC#Cc1cc(C)c(C2C(=O)CC3(CCN(S(=O)(=O)CC)C3)CC2=O)c(C)c1 (centres unmarked) [Compound A7]	5 (5=80-100%)
CC#Cc1cc(C)c(C2C(=O)CC3(CCCN(S(=O)(=O)CC)CC3)CC2=O)c(C)c1 (centres unmarked) [Compound A8]	5 (5=80-100%)
CC#Cc1cc(C)c(C2C(=O)CC3(CCCN(C(C)=O)CC3)CC2=O)c(C)c1 (centres unmarked) [Compound A9]	5 (5=80-100%)
CC#Cc1cc(C)c(C2C(=O)CC3(CCC(=O)NC3)CC2=O)c(C)c1 (centres unmarked) [Compound A10]	5 (5=80-100%)
CC#Cc1cc(C)c(C2C(=O)CC3(CCC(=O)N(C(C)=O)C3)CC2=O)c(C)c1 (centres unmarked) [Compound A11]	5 (5=80-100%)

These compounds were tested on Lolium perenne (LOLPE) in the same assay as above. Conditions: post-emergence, 250 g/h, evaluated after 13 days.
Format: in vivo
Experimental: as §1

SMILES	LOLPE POST percentage damage caused to the plant (five-point scale)
CC#Cc1cc(C)c(C2C(=O)CC3(CCN(S(=O)(=O)CC)C3)CC2=O)c(C)c1 (centres unmarked) [Compound A7]	5 (5=80-100%)
CC#Cc1cc(C)c(C2C(=O)CC3(CCCN(S(=O)(=O)CC)CC3)CC2=O)c(C)c1 (centres unmarked) [Compound A8]	5 (5=80-100%)
CC#Cc1cc(C)c(C2C(=O)CC3(CCCN(C(C)=O)CC3)CC2=O)c(C)c1 (centres unmarked) [Compound A9]	5 (5=80-100%)
CC#Cc1cc(C)c(C2C(=O)CC3(CCC(=O)NC3)CC2=O)c(C)c1 (centres unmarked) [Compound A10]	5 (5=80-100%)
CC#Cc1cc(C)c(C2C(=O)CC3(CCC(=O)N(C(C)=O)C3)CC2=O)c(C)c1 (centres unmarked) [Compound A11]	5 (5=80-100%)

Same assay, conditions: pre-emergence, 250 g/h, evaluated after 13 days

SMILES	LOLPE PRE percentage damage caused to the plant (five-point scale)
CC#Cc1cc(C)c(C2C(=O)CC3(CCN(S(=O)(=O)CC)C3)CC2=O)c(C)c1 (centres unmarked) [Compound A7]	5 (5=80-100%)
CC#Cc1cc(C)c(C2C(=O)CC3(CCCN(S(=O)(=O)CC)CC3)CC2=O)c(C)c1 (centres unmarked) [Compound A8]	5 (5=80-100%)
CC#Cc1cc(C)c(C2C(=O)CC3(CCCN(C(C)=O)CC3)CC2=O)c(C)c1 (centres unmarked) [Compound A9]	5 (5=80-100%)
CC#Cc1cc(C)c(C2C(=O)CC3(CCC(=O)NC3)CC2=O)c(C)c1 (centres unmarked) [Compound A10]	5 (5=80-100%)
CC#Cc1cc(C)c(C2C(=O)CC3(CCC(=O)N(C(C)=O)C3)CC2=O)c(C)c1 (centres unmarked) [Compound A11]	5 (5=80-100%)

These compounds were tested on Echinochloa crus-galli (ECHCG) in the same assay as above. Conditions: post-emergence, 250 g/h, evaluated after 13 days.
Format: in vivo
Experimental: as §1

SMILES	ECHCG POST percentage damage caused to the plant (five-point scale)
CC#Cc1cc(C)c(C2C(=O)CC3(CCN(S(=O)(=O)CC)C3)CC2=O)c(C)c1 (centres unmarked) [Compound A7]	5 (5=80-100%)
CC#Cc1cc(C)c(C2C(=O)CC3(CCCN(S(=O)(=O)CC)CC3)CC2=O)c(C)c1 (centres unmarked) [Compound A8]	5 (5=80-100%)
CC#Cc1cc(C)c(C2C(=O)CC3(CCCN(C(C)=O)CC3)CC2=O)c(C)c1 (centres unmarked) [Compound A9]	5 (5=80-100%)
CC#Cc1cc(C)c(C2C(=O)CC3(CCC(=O)NC3)CC2=O)c(C)c1 (centres unmarked) [Compound A10]	5 (5=80-100%)
CC#Cc1cc(C)c(C2C(=O)CC3(CCC(=O)N(C(C)=O)C3)CC2=O)c(C)c1 (centres unmarked) [Compound A11]	5 (5=80-100%)

Same assay, conditions: pre-emergence, 250 g/h, evaluated after 13 days

SMILES	ECHCG PRE percentage damage caused to the plant (five-point scale)
CC#Cc1cc(C)c(C2C(=O)CC3(CCN(S(=O)(=O)CC)C3)CC2=O)c(C)c1 (centres unmarked) [Compound A7]	5 (5=80-100%)
CC#Cc1cc(C)c(C2C(=O)CC3(CCCN(S(=O)(=O)CC)CC3)CC2=O)c(C)c1 (centres unmarked) [Compound A8]	5 (5=80-100%)
CC#Cc1cc(C)c(C2C(=O)CC3(CCCN(C(C)=O)CC3)CC2=O)c(C)c1 (centres unmarked) [Compound A9]	5 (5=80-100%)
CC#Cc1cc(C)c(C2C(=O)CC3(CCC(=O)NC3)CC2=O)c(C)c1 (centres unmarked) [Compound A10]	5 (5=80-100%)
CC#Cc1cc(C)c(C2C(=O)CC3(CCC(=O)N(C(C)=O)C3)CC2=O)c(C)c1 (centres unmarked) [Compound A11]	5 (5=80-100%)

What follows are compounds tested on Avena fatua (AVEFA) in the same assay as above. Conditions: post-emergence, 250 g/h, evaluated after 13 days.
Format: in vivo
Experimental: as §1

SMILES	AVEFA POST percentage damage caused to the plant (five-point scale)
CC#Cc1cc(C)c(C2C(=O)CC3(CCN(S(=O)(=O)CC)C3)CC2=O)c(C)c1 (centres unmarked) [Compound A7]	5 (5=80-100%)
CC#Cc1cc(C)c(C2C(=O)CC3(CCCN(S(=O)(=O)CC)CC3)CC2=O)c(C)c1 (centres unmarked) [Compound A8]	5 (5=80-100%)
CC#Cc1cc(C)c(C2C(=O)CC3(CCCN(C(C)=O)CC3)CC2=O)c(C)c1 (centres unmarked) [Compound A9]	5 (5=80-100%)
CC#Cc1cc(C)c(C2C(=O)CC3(CCC(=O)NC3)CC2=O)c(C)c1 (centres unmarked) [Compound A10]	5 (5=80-100%)
CC#Cc1cc(C)c(C2C(=O)CC3(CCC(=O)N(C(C)=O)C3)CC2=O)c(C)c1 (centres unmarked) [Compound A11]	5 (5=80-100%)

Same assay, conditions: pre-emergence, 250 g/h, evaluated after 13 days

SMILES	AVEFA PRE percentage damage caused to the plant (five-point scale)
CC#Cc1cc(C)c(C2C(=O)CC3(CCN(S(=O)(=O)CC)C3)CC2=O)c(C)c1 (centres unmarked) [Compound A7]	5 (5=80-100%)
CC#Cc1cc(C)c(C2C(=O)CC3(CCCN(S(=O)(=O)CC)CC3)CC2=O)c(C)c1 (centres unmarked) [Compound A8]	5 (5=80-100%)
CC#Cc1cc(C)c(C2C(=O)CC3(CCCN(C(C)=O)CC3)CC2=O)c(C)c1 (centres unmarked) [Compound A9]	5 (5=80-100%)
CC#Cc1cc(C)c(C2C(=O)CC3(CCC(=O)NC3)CC2=O)c(C)c1 (centres unmarked) [Compound A10]	5 (5=80-100%)
CC#Cc1cc(C)c(C2C(=O)CC3(CCC(=O)N(C(C)=O)C3)CC2=O)c(C)c1 (centres unmarked) [Compound A11]	3 (3=40-59%)
